From article PMC2996141 (Journal of chemical information and modeling, 2010)
“Also recorded” adds a separate entry of the source. Where two headings read alike, the source gives them in different places.

How the values were obtained:
cell growth = conditions: cited from earlier work
[1] = molecular target: microtubules (laulimalide/peloruside A site) (Bos taurus, UniProt Q6B856); assay: Inhibition of [^3H]peloruside A binding to microtubules; parameters: species or system Bovine; conditions: for inhibition at 20 µM: read-out: % inhibition ± SD, radiolabeled ligand [^3H]peloruside A; for % inhibition ± SD, radiolabeled ligand [^3H]peloruside A: 2.0 µM tubulin as microtubules, radiolabeled ligand 4.0 µM, inhibitor 20 µM; for type of inhibition of [^3H]peloruside A binding: Hanes analysis; for Ki: read-out: apparent Ki, inhibition of [^3H]peloruside A binding, Dixon analysis, competitive
Sequence of microtubules (laulimalide/peloruside A site) (Q6B856 whole entry): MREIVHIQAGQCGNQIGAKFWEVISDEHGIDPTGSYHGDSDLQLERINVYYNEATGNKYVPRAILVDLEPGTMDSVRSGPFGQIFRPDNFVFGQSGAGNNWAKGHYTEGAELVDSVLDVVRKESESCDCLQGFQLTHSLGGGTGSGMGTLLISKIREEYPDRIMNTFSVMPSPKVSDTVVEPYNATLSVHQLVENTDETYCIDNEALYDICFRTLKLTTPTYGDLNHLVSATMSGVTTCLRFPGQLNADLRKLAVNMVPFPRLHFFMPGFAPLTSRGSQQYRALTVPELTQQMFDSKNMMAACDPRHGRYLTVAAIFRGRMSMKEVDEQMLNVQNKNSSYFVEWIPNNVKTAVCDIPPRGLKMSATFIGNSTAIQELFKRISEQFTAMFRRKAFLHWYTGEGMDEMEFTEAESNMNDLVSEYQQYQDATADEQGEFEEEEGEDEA
Sequence of microtubules (laulimalide/peloruside A site) (P81947 whole entry partner): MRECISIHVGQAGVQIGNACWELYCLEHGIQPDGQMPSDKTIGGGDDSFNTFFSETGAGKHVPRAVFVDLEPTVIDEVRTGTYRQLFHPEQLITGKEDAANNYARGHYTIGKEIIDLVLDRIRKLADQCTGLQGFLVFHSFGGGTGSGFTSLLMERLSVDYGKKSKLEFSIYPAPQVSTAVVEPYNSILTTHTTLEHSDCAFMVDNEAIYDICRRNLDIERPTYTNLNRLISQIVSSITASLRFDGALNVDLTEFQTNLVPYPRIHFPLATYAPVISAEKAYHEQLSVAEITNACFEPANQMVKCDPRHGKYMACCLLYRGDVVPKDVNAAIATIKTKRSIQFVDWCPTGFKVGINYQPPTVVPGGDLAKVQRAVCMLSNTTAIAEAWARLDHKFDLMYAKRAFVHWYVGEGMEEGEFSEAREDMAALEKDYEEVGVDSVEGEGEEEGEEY

[2] = tested on: microtubules (taxoid site); assay: Inhibition of [^3H]paclitaxel binding to microtubules; parameters: species or system Bovine; conditions: for % inhibition ± SD, radiolabeled ligand [^3H]paclitaxel: 2.0 µM tubulin as microtubules, radiolabeled ligand 4.0 µM, inhibitor 20 µM
[3] = molecular target: T1, tubulin polymer (microtubules) (Bos taurus, UniProt Q6B856); assay: Binding of [^3H]paclitaxel to preformed tubulin polymer, Scatchard analysis; parameters: species or system Bovine
T1 sequence (Q6B856 whole entry): as the sequence (Q6B856 whole entry) above
T1 sequence (P81947 whole entry partner): as the sequence (P81947 whole entry partner) above

[4] = molecular target: T1, tubulin polymer (microtubules); assay: Binding of [^3H]peloruside A to preformed tubulin polymer, Scatchard analysis; parameters: species or system Bovine

| Compound | ability to inhibit [^3H]peloruside A binding (words) [1] | inhibition at 20 µM [1] | ability to inhibit [^3H]paclitaxel binding [2] | % inhibition ± SD, radiolabeled ligand [^3H]paclitaxel [2] | also measured |
| --- | --- | --- | --- | --- | --- |
| C=C1C[C@H](C)C[C@@H]2CC=C[C@@H](C/C=C\C(=O)O[C@@H](/C=C/[C@@H]3CC(C)=CCO3)[C@@H](O)C[C@@H]3O[C@H]3[C@@H](O)C1)O2 [compound 13, neolaulimalide] | – | – | – | – | activity in cells and with tubulin relative to laulimalide (cell growth; ref Gollner et al. 41): equivalent to that of laulimalide |
| C=C/C=C\[C@H](C)[C@H](OC(N)=O)[C@@H](C)[C@H](O)[C@@H](C)C/C(C)=C\[C@H](C)[C@@H](O)[C@@H](C)/C=C\[C@@H](O)C[C@@H]1OC(=O)[C@H](C)[C@@H](O)[C@H]1C [discodermolide] | essentially no ability to inhibit; also recorded: little activity | 5 ± 2% | strong inhibitors | 87 ± 2% | – |
| C/C(=C\c1csc(C)n1)[C@@H]1C[C@@H]2O[C@]2(C)CCC[C@H](C)[C@H](O)[C@@H](C)C(=O)C(C)(C)[C@@H](O)CC(=O)O1 [epothilone B] | essentially no ability to inhibit; also recorded: little activity | 2.2 ± 5% | strong inhibitors | 79 ± 5% | – |
| C=C1C[C@H](C)C[C@@H]2CC=C[C@@H](C/C=C\C(=O)O[C@H]([C@@H](O)/C=C/[C@@H]3CC(C)=CCO3)C[C@@H]3O[C@H]3[C@@H](O)C1)O2 [laulimalide] | inhibitory; also recorded: potent competitive inhibitor | – | essentially inactive | 1.7 ± 5% | % inhibition ± SD, radiolabeled ligand [^3H]peloruside A [1]: 90 ± 0.1%; type of inhibition of [^3H]peloruside A binding [1]: competitive inhibitor; Ki [1]: 250 nM |
| CC(=O)O[C@H]1C(=O)[C@@]2(C)[C@H]([C@H](OC(=O)c3ccccc3)[C@]3(O)C[C@H](OC(=O)[C@H](O)[C@@H](NC(=O)c4ccccc4)c4ccccc4)C(C)=C1C3(C)C)[C@]1(OC(C)=O)CO[C@@H]1C[C@@H]2O [paclitaxel] | little activity | 6.8 ± 0.5% | – | – | Kd [3]: 240 nM; ability to inhibit [^3H]peloruside A binding (words) ([1]; listed as Paclitaxel): essentially no ability to inhibit |
| CC[C@@H](/C=C(/C)[C@H]1C[C@H](OC)C[C@@H](O)C(C)(C)[C@]2(O)O[C@H](C[C@H](OC)[C@@H](O)C(=O)O1)C[C@H](OC)[C@@H]2O)CO [peloruside A] | – | – | – | 5.1 ± 6% | number of binding sites per tubulin αβ-dimer in microtubules [4]: one binding site |
| CC[C@H](/C=C(/C)[C@@H]1C[C@@H](OC)C[C@H](O)C(C)(C)[C@@]2(O)O[C@@H](C[C@@H](O)[C@H](O)C(=O)O1)C[C@@H](OC)[C@H]2O)CO [peloruside B] | – | – | – | – | cytotoxicity relative to peloruside A (cell growth): about three-fold less cytotoxic |
| (11-R)-peloruside A | inhibitory | – | essentially inactive | 0 ± 8% | % inhibition ± SD, radiolabeled ligand [^3H]peloruside A [1]: 49 ± 1%; type of inhibition of [^3H]peloruside A binding [1]: competitive inhibitors; Ki [1]: 9300 nM |
